Laboratory results from article PMC10249896, “AI-Assisted chemical probe discovery for the understudied Calcium-Calmodulin Dependent Kinase, PNCK” (PLOS Computational Biology, 2023).
pIC50: −log10 of the molar value. Where “and” joins values, the source holds several entries; their conditions need not be identical. Identical values can stand only once. Like-named read-outs stand apart in the source and are kept apart here.

Columns and labels:
[1] = target: T1, PNCK Nano-luciferase fusion (Homo sapiens, UniProt Q6P2M8); assay: NanoBRET Target Engagement Intracellular Kinase Assay, cell-based PNCK binding screen and dose response in HEK293 cells; details: for pIC50: 8-point concentration-response; for NanoBRET binding, result in words: cell-based screen / comparison with parent hit; for dose response raw signal: replicate values
T1 construct: host or cells: HEK293
Experimental: The NanoBRET Target Engagement Intracellular Kinase Assay (Promega N2520) is a cell-based binding screen which reads loss of BRET signal as a result of target binding. A PNCK Nano-luciferase fusion vector plasmid was generated custom by Promega. The K-10 tracer was used for the assay, as determined by Promega. The plasmid was maxiprepped by Genewiz for use in all future assays. HEK293 cells were seeded in a T175 flask in DMEM with 10% FBS. The following day, cells were counted to 10,000, resuspended in assay media (Optimem with no phenol red, 1% FBS). Plasmid and transfection reagent (Fugene HD, Promega E2311) were added to the mixture and cells were seeded in a white 96-well plate. After 20–24 hours, media was changed, and the assay proceeded according to protocol. K10 tracer was added at the recommended concentration of 1uM while compounds were initially screened at both 10uM and 1uM. Cells incubated with compound at 37 degrees Celsius for a maximum of 2 hours before the plate was read using Clariostar Plus. Data was normalized to Staurosporine and DMSO controls. For compounds selected for further analysis, dose response curves were generated using the same testing protocol but at 8 different concentrations: 24uM, 12uM, 6uM, 3uM, 1.5uM, .75uM 0.375uM and 0.1875uM. UM195 was tested with concentrations from 12uM to 0.09375. Similarly, compounds from the analog by catalog analysis were tested at concentrations from 24uM to 0.1875uM.
(§1) Data analysis of ADP Kinase Glo results were carried out per the manufacturer’s instructions. Results were represented as a percent decrease in activity. Data was normalized to staurosporine (positive control) as 100% decrease and DMSO (negative control) as a 0% decrease. Data for NanoBRET was analyzed by dividing the acceptor by the donor emission and […] to obtain raw millibret units (mBU). Background was subtracted using control emission averages. Data was normalized to positive and negative controls of staurosporine and DMSO. Concentration-response curves were plotted in GraphPad Prism 8 and IC50s were extrapolated using non-linear fit with concentrations transformed to logarithmic scale. Baseline was held constant and represented the average mBU of staurosporine controls while the top was constrained to represent the average mBU of DMSO controls. Error bars on dose-response curves represent standard deviations.

[2] = target: T1, PNCK Nano-luciferase fusion; assay: as above
[3] = Aqueous solubility observed on testing; assay type: physicochemical; details: stated on testing
[4] = target: T2, GST-tagged PNCK recombinant protein (Homo sapiens, UniProt Q6P2M8); assay: ADP-Glo Kinase Assay, biochemical PNCK inhibitor screen; details: for inhibition at 10 µM: read-out: Avg. Normalized % Inhibition, 10uM, ADP Kinase Glo
T2 construct: GST; purchased Novus NBP1-99886
Experimental: ADP-Glo Kinase Assay (V6930, Promega) was used to screen the first round of compounds against PNCK. […] Autocamtide-II (GenScript RP10271) was used as the peptide substrate. This peptide was dissolved in water and prepared immediately prior to the assay. Calcium/Calmodulin 10X (Abcam ab189137) solution was used to create a custom kinase buffer: 40mM Tris,pH 7.5; 20mM MgCl2; 0.1mg/ml BSA; 50μM DTT and Ca2+/Calmodulin solution (0.03μg/μl, Calmodulin, 1mM Tris,pH 7.3, 0.5mM CaCl2). […] A standard curve was then done to determine the amount of protein needed to generate a signal in the linear range of the ATP curve. 100ng of PNCK and 2ng of substrate was used per well in the 96-well plate format of this assay. […] Plates were read using the Clariostar Plus. Data was normalized to a DMSO and staurosporine controls.
as §1

[5] = compound 1uM, HEK293, K10 tracer 1uM, normalized to staurosporine and DMSO, read-out: Avg. Normalized % Inhibition, 1uM, Nanobret
[6] = compound 10uM, HEK293, K10 tracer 1uM, normalized to staurosporine and DMSO, read-out: Avg. Normalized % Inhibition, 10uM, Nanobret
[7] = compound 10uM, 25uM ATP, normalized to DMSO and staurosporine controls

T1 sequence (Q6P2M8 whole entry, the tested form may be a part): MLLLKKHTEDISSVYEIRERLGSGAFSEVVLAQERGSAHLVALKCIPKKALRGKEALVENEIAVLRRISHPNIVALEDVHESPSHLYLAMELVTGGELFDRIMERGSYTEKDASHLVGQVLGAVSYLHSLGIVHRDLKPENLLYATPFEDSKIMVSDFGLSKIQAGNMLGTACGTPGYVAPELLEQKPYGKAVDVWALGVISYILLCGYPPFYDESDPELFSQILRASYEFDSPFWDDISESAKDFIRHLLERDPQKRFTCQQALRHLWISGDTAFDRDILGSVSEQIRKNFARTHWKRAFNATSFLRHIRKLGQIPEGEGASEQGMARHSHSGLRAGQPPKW

## CC1CCc2c(sc(NC(=O)CSc3ncc(-c4ccc(F)cc4)[nH]3)c2C(N)=O)C1 (stereo not drawn) [UM_252]
[1]; HEK293
  pIC50: 5.96
[1]; Concentration 1.25E-06 M
  Dose-Response Curve Data (NanoBRET signal, replicates): 5.69 and 4.76 and 5.57 and 5.29 and 6.48
[1]; Concentration 2.00E-05 M
  Dose-Response Curve Data (NanoBRET signal, replicates): 4.90 and 5.31 and 5.12 and 5.26 and 5.44
[1]; Concentration 2.50E-06 M
  Dose-Response Curve Data (NanoBRET signal, replicates): 5.05 and 5.03 and 4.81 and 5.42 and 6.45
[1]; Concentration 5.00E-06 M
  Dose-Response Curve Data (NanoBRET signal, replicates): 4.80 and 4.70 and 5.14 and 6.28 and 5.58
[1]; Concentration 6.25E-07 M
  Dose-Response Curve Data (NanoBRET signal, replicates): 5.77 and 5.39 and 5.91 and 7.06 and 6.32
[1]
  NanoBRET binding, result in words: improving from the IC50 of UM_228 by one order of magnitude
[1]; [5]
  inhibition at 1 µM: 49.9%
[1]; [6]
  inhibition at 10 µM: 79.1%
[2]; Concentration 1.00E-05 M
  Dose-Response Curve Data (NanoBRET signal, replicates): 5.51 and 5.44 and 5.21 and 5.32 and 4.78
[2]; Concentration 1.56E-07 M
  Dose-Response Curve Data (NanoBRET signal, replicates): 6.58 and 6.82 and 6.54 and 7.24 and 6.53
[2]; Concentration 3.13E-07 M
  Dose-Response Curve Data (NanoBRET signal, replicates): 6.79 and 6.18 and 7.47 and 6.16 and 7.19

## Cc1ccc(C)c(OCc2nc(-c3cccnn3)no2)c1C [UM_245]
[3]
  aqueous solubility: poor aqueous solubility

## Oc1c(/C=N/c2ccc(Br)cn2)sc2ccccc12 [UM_234]
[1]; [5]
  inhibition at 1 µM: 5.92%
[1]; [6]
  inhibition at 10 µM: 17.1%
[3]
  aqueous solubility: poor aqueous solubility

## O=C(O)c1ccc(-c2nc3c([nH]2)CCN(C(=O)c2cc(C4CC4)n[nH]2)C3)cc1 [UM_034]
[1]; [5]
  inhibition at 1 µM: 6.51%
[1]; [6]
  inhibition at 10 µM: 7.78%
[4]; [7]
  inhibition at 10 µM: 51.7%

## O=C(O)c1ccc(F)c(S(=O)(=O)Nc2ccc(-c3cnco3)cc2)c1 [UM_021]
[1]; [5]
  inhibition at 1 µM: 0%
[1]; [6]
  inhibition at 10 µM: 0%
[4]; [7]
  inhibition at 10 µM: 33.3%

## COc1ccc(CNC(=O)c2cc(C3CC3)[nH]n2)cc1C(=O)O [UM_019]
[1]; [5]
  inhibition at 1 µM: 0%
[1]; [6]
  inhibition at 10 µM: 0%
[4]; [7]
  Avg. Normalized % Inhibition, 10uM, ADP Kinase Glo: Negligible

## COc1ccccc1CNc1ncnc2sc(C(=O)O)c(C)c12 [UM_035]
[1]; [5]
  inhibition at 1 µM: 0%
[1]; [6]
  inhibition at 10 µM: 13.6%
[4]; [7]
  Avg. Normalized % Inhibition, 10uM, ADP Kinase Glo: 75.66%

## COC(=O)c1cnc(Sc2nnc(-c3cccc4ccccc34)o2)cn1 [UM_254]
[1]; HEK293
  pIC50: 5.57
[1]; Concentration 1.25E-06 M
  Dose-Response Curve Data (NanoBRET signal, replicates): 7.15 and 8.63 and 7.69 and 7.36
[1]; Concentration 2.00E-05 M
  Dose-Response Curve Data (NanoBRET signal, replicates): 4.80 and 4.63 and 5.32 and 4.99
[1]; Concentration 2.50E-06 M
  Dose-Response Curve Data (NanoBRET signal, replicates): 7.32 and 7.44 and 7.90 and 7.31
[1]; Concentration 5.00E-06 M
  Dose-Response Curve Data (NanoBRET signal, replicates): 6.60 and 7.13 and 7.18 and 7.54
[1]; Concentration 6.25E-07 M
  Dose-Response Curve Data (NanoBRET signal, replicates): 7.54 and 7.48 and 8.39 and 8.00
[1]; [5]
  inhibition at 1 µM: 16.1%
[1]; [6]
  inhibition at 10 µM: 68.2%
[2]; Concentration 1.00E-05 M
  Dose-Response Curve Data (NanoBRET signal, replicates): 5.13 and 5.39 and 6.19 and 4.97
[2]; Concentration 1.56E-07 M
  Dose-Response Curve Data (NanoBRET signal, replicates): 8.00 and 8.01 and 8.11 and 8.38
[2]; Concentration 3.13E-07 M
  Dose-Response Curve Data (NanoBRET signal, replicates): 8.00 and 8.43 and 7.99 and 7.89

## O=C1NC(=O)C(=Cc2ccc(Sc3nc4ccccc4[nH]3)o2)C(=O)N1 [UM_036]
[1]; HEK293, read-out: Avg. Normalized % Inhibition, 1uM, Nanobret
  inhibition at 1 µM: 2.83%
[1]; HEK293, read-out: Avg. Normalized % Inhibition, 10uM, Nanobret
  inhibition at 10 µM: 16.8%
[4]
  inhibition at 10 µM: 39.2%

## Cc1ccccc1CN1CCC(CNc2ncnc3sc(C(=O)O)c(C)c23)CC1 [UM_027]
[1]; [5]
  inhibition at 1 µM: 7.16%
[1]; [6]
  inhibition at 10 µM: 23%
[4]; [7]
  inhibition at 10 µM: 63.9%

## O=C1CN(C(=O)COc2ccc3c4c(c(=O)oc3c2)CCCCC4)CCN1 [UM_259]
[1]; HEK293
  pIC50: 5.54
[1]; Concentration (M) 1.00E-05
  dose response raw signal: 4.13 and 4.39 and 5.19 and 4.12
[1]; Concentration (M) 1.25E-06
  dose response raw signal: 5.91 and 7.63 and 6.69 and 6.36
[1]; Concentration (M) 1.56E-07
  dose response raw signal: 7.98 and 8.01 and 8.32 and 8.22
[1]; Concentration (M) 2.50E-06
  dose response raw signal: 4.91 and 6.63 and 5.69 and 5.36
[1]; Concentration (M) 3.13E-07
  dose response raw signal: 8.79 and 8.75 and 7.57 and 7.89
[1]; Concentration (M) 5.00E-06
  dose response raw signal: 4.98 and 5.24 and 5.45 and 6.11
[1]; Concentration (M) 6.25E-07
  dose response raw signal: 8.89 and 8.75 and 7.37 and 7.79
[1]
  NanoBRET binding, result in words: higher affinity for PNCK than the parent
[1]; [5]
  inhibition at 1 µM: 27.5%
[1]; [6]
  inhibition at 10 µM: 84.1%
[2]; Concentration (M) 2.00E-05, replicate values
  dose response raw signal: 4.80 and 4.22 and 5.32 and 4.30

## CC(C)c1ccc(NS(=O)(=O)c2cc(-c3ccc(=O)[nH]n3)ccc2Cl)cc1 [UM_029]
[1]; [5]
  inhibition at 1 µM: 0%
[1]; [6]
  inhibition at 10 µM: 52%
[4]; [7]
  Avg. Normalized % Inhibition, 10uM, ADP Kinase Glo: 81.53%

## CC(C)(C(=O)O)c1ccc(NS(=O)(=O)c2cc(F)c(F)cc2F)cc1 [UM_025]
[1]; [5]
  inhibition at 1 µM: 0%
[1]; [6]
  inhibition at 10 µM: 17.2%
[4]; [7]
  inhibition at 10 µM: 75.3%

## COc1ccc(C(=O)/C=C/c2n[nH]c3cc(C(=O)O)ccc23)c(F)c1 [UM_020]
[1]; [5]
  inhibition at 1 µM: 0%
[1]; [6]
  inhibition at 10 µM: 0%
[4]; [7]
  Avg. Normalized % Inhibition, 10uM, ADP Kinase Glo: Negligible
